# System: ABCA1 mRNA
# Assay: Quantitative analysis of ABCA1 mRNA (TaqMan PCR) in RAW264.7 cells
# Format: cell-based, mouse
# Conditions: 100 nM test compound, 24 hr, normalised to β-actin, DMSO = 100
# Protocol: The mouse monocyte/macrophage cell line, RAW264.7 (ATCC TIB71) was purchased from Dainippon Pharmaceutical Co., Ltd. As the medium, the Dulbecco's modified Eagle's medium (DMEM medium; GIBCO, Cat. No. 11995-040) containing bovine fetal serum (the final concentration: 10% (v/v), MOREGATE, lot No. 474030), penicillin G (the final concentration: 50 units/mL, GIBCO) and streptomycin (the final concentration: 20 μg/mL, GIBCO) was used.
# The culture of RAW264.7 cells was carried out in a CO2 incubator (37° C., 95% R.H., 5% of CO2).
# A 2 ml volume of RAW264.7 cells suspension (1×10^6 cells/mL) was plated in each well of a 6-well plate (2×10^6 cells/well) and the cells were incubated for 2 hr in a CO2 incubator. The test compounds dissolved in DMSO were diluted with DMEM medium by 20 times, and were added to the wells at a volume of 4 μL/well (final concentration of the test compound: 100 nM). As the control, the DMSO solution was diluted with the DMEM medium by 20 times, and was added to the wells at the volume of 4 μL/well. After the cells were cultured in a CO2 incubator for 24 hr, the medium was removed and the total RNA was purified by using an RNeasy Mini Kit (Qiagen), according to the protocol attached. The concentration of the RNA in the samples obtained was calculated from absorbance at 260 nm (A260=1=40 μg/ml). Six (6) μg of total RNA were diluted with RNAase-free water so as to be 22.6 μL, which was heated at 65° C. for 10 min, and then was cooled on ice. The RNA in the solution was used as the template, and the cDNA was synthesized by using a First-strand cDNA Synthesis Kit (Amersham Pharmacia Biotech). In this reaction, a solution was prepared having the following composition and was reacted at 37° C. for 1 hr.
# After the reaction, 3 μL of soution were collected from each of the reaction mixtures of the test compound-treated cell samples and that of the control cell samples. The mixed solution was used as the standard solution. The standard solution and each reaction solution were purified with a Chroma Spin-100+DEPC-H2O Column according to the protocol attached, and they were used as the template for TaqMan PCR (Template). In order to draw the calibration curve, the standard solution was diluted by every 5 times for 5 steps and each solution was used for TaqMan PCR. TaqMan PCR was carried out in ABCA1 and β-actin. As Primers for use in the TaqMan PCR, 4 oligonucleotides (abca1 forward (S3), abca1 reverse (AS3), β-actin forward (S4) and β-actin reverse (AS4)) were designed which are shown in sequences No. 5 to 8 in the sequence table described later. The synthesis and purification of these 4 oligomers was ordered from Amersham Pharmacia Biotech Co.
# As FAM-TAMRA labelled TaqMan Probe, 2 kinds of oligonucleotides (abca1 (p1) and β-actin (p2)) were designed and were ordered from Applied Biosystems Co. to synthesize and purify.
# The following reaction mixture of ABCA1 or β-actin was divided into 2 wells of a MicroAmp Optical 96-well Reaction Plate (Applied Biosystem Co.). TaqMan Universal PCR Master Mix was purchased from Applied Biosystem Co.
# The plate was covered with a MicroAmp Optical Cap (Applied Biosystems Co.), and TaqMan PCR was carried out by using an ABI PRISM 7,700 Sequence Detection System (Applied Biosystem Co.) under the following conditions:
# An analysis was made according to the procedures described in the manual of Sequence Detection Software (Applied Biosystem Co.) and the increased rate of ABCA1 mRNA due to the test compound was calculated based on the following equation.
# A: Amount of the ABCA1 mRNA in the presence of the test compound
# B: Amount of the β-actin mRNA in the presence of the test compound
# C: Amount of the ABCA1 mRNA in the presence of DMSO
# D: Amount of the β-actin mRNA in the presence of DMSO
# Increase Rate (%) of ABCA1 mRNA=(A/B)/(C/D)×100
structure (smiles),measurement,value
"O=C(Nc1ccc(-c2ccc(O)cc2)cc1)c1cc([N+](=O)[O-])ccc1Cl [Example 135, N-[4-(4-Hydroxyphenyl)phenyl]-2-(chloro-5-nitrophenyl)carboxamide]",Rate of Increase (%) of ABCA1 mRNA,163.0%

# Source: patent US20030134859A1 (SANKYO COMPANY, LIMITED, priority 2000, published 2003)
